{
  "source": "patent US5565444A",
  "about": "“Osteogenesis promoter and osteoporosis remedy” (LTT Institute Co., Ltd., priority 1993, dated 1996)",
  "key": {"[1]": {"details": "background report, cited from earlier work"}, "[2]": {"tested_on": "Osteogenic Precursor Cells in Bone Marrow", "test": "Effects on the number of osteogenic precursor cells in bone marrow, Experiment 2 (FCFU formation after subcutaneous administration)", "format": "in vivo", "details": "7 successive days, Lewis rat, N = 4", "procedure": "(§1) After the invention compound was administered to a 7-weeks old Wistar or Lewis rat intraperitoneally (Experiment 1) or dorsi-subcutaneously (Experiment 2) for 7 successive days, the femurs and tibias were excised. Marrow cells were collected from the bones so obtained, followed by incubation in a 25-cm^2 culture flask for 7 days. For the incubation, the αMEM medium containing 15% fetal calf serum was used. Subsequent to giemsa or alkaline phosphatase staining, the number of fibroblast colony forming units on the culture flask was counted. The number of the fibroblast colony forming units (=FCFUs) is known to correlate with the in vitro ostogenesis. The total number of FCFUs and the number of FCFUs positive to alkaline phosphatase are shown in Table 1 and Table 2, respectively. Experiment 1:\nInfluence of the subcutaneous administration of\nthe invention compounds and testosterone for 7\nsuccessive days on the formation of FCFUs:\nThe number of FCFUs (after 7 days) (Lewis rat N = 4)"}, "[3]": {"tested_on": "Osteogenic Precursor Cells in Bone Marrow", "test": "Effects on the number of osteogenic precursor cells in bone marrow, Experiment 1 (FCFU formation after intraperitoneal administration)", "format": "in vivo", "details": "1 mg/kg intraperitoneal, 7 successive days; Wistar rat, N = 4; after 7 days incubation", "procedure": "as §1\nInfluence of the intraperitoneal administration of\nthe invention compound at 1 mg/kg for 7 successive\ndays on the formation of FCFUs:\nThe number of FCFUs (after 7 days) (Wistar rat N = 4)"}, "osteocalcin": {"tested_on": "osteocalcin", "test": "Effects on serum osteocalcin (radioimmunoassay)", "format": "in vivo, Wistar rat", "procedure": "A 7-weeks old Wistar rat was intraperitoneally administered at 0.1 mg/kg with 11β-OH-Δ^4 -A for 7 successive days and the concentration of osteocalcin in the serum was measured by radioimmunoassay."}, "[4]": {"tested_on": "osteogenic precursor cells", "test": "Improving effects on the osteogenesis depression in postovariectomy osteoporosis (FCFU forming ability)", "format": "in vivo, female Wistar rat (ovariectomized)", "procedure": "From a 7-weeks old female Wistar rat, the ovaria were both excised and three months after that, administration of a drug was started. As the drug, 11β-OH-Δ^4 -A, was administered dorsi-subcutaneously three times a week, each, at 0.1 mg/kg or 1 mg/kg. Subsequent to the administration of the drug for 1 month, the femurs and shinbones were collected. From the right femur and both the shinbones, osteoblasts were collected and the formation of colonies (FCFUs) of osteogenic precursor cells was observed."}, "[5]": {"test": "Improving effects on the bone mass reduction in postovariectomy osteoporosis (bone-salt amount by DXA)", "format": "in vivo, female Wistar rat (ovariectomized)", "details": "three times a week, 3 months, FIGS. 3-6", "procedure": "From a 7-weeks old female Wistar rat, the ovaria were both excised. Three months after that, the administration of a drug was started. As the drug, 11β-OH-^4 -A or dihydroepiandrosterone (DHEA) was dorsisubcutaneously administered three times a week, each, at 1 mg/kg. After the drug administration was continued for 3 months, the femurs and shinbones were collected and the bone-salt amount was measured at three places, that is, the proximal end, diaphysis and distal end. The measurements of the bone-salt amount were conducted using an Aloka DCS-600 model by dual energy X-ray absorptiometry (DXA)."}, "[6]": {"tested_on": "anterior lobe of prostate", "test": "Androgenic action, Hershberge method (1)", "format": "in vivo, castrated Wistar male rat", "details": "10 successive days, FIG. 8", "procedure": "(§2) (1) In accordance with the Hershberge method, a castrated, 4-weeks old, Wistar, male rat (6 rats per group) was subcutaneously administered with 11-OH-Δ^4- A at 0.1-0.3 mg/rat/day for 10 successive days. Similarly, a vehicle (sesame oil) was administered to the Sham-operated group and a control group, and testosterone propionate (T.P.) was administered at 0.1 mg/rat/day as a positive control. On the day following the completion of the administration, the anterior lobe of prostate and the musculus levator ani were excised and weighed. From a change in the weight of the anterior lobe of the prostate and the musculus levator ani, androgenic action and anabolic action were studied."}, "musculus levator ani": {"tested_on": "musculus levator ani", "test": "Anabolic action, Hershberge method (1)", "format": "in vivo, castrated Wistar male rat", "details": "0.3 mg/rat/day subcutaneous, 10 successive days; FIG. 8", "procedure": "as §2"}, "Acute toxicity test": {"test": "Acute toxicity test", "details": "in vivo, sc; subcutaneous, Wistar rat", "procedure": "An acute toxicity test of the invention compound 11β-OH-Δ^4 -A was conducted in the following manner.\nTo a Wistar rat, 11β-OH-Δ^4 -A was subcutaneously administered in an amount considered to be an intoxicating dose. The conditions of the rat were observed and at the same time, the LD50 value was determined."}},
  "note": "Like-named read-outs stand apart in the source and are kept apart here.",
  "data": [
    {"compound": "estrogen", "values": [
      {"measurement": "effect on bone mass of ovariectomized animals", "setting": "[1]", "value": "evident curative effect for a decrease in the bone mass of an ovariectomized animal"}
    ]},
    {"compound": "C[C@]12C=CC(=O)C=C1CC[C@@H]1[C@@H]2[C@@H](O)C[C@]2(C)C(=O)CC[C@@H]12", "note": "[11β-OH-Δ^1,4 -A, 11β-hydroxy-1,4-androstadiene-3,17-dione]", "values": [
      {"measurement": "The number of FCFUs positive for alkaline phosphatase", "setting": "[2]; 0.1 mg/kg subcutaneous", "value": "85 ± 11"},
      {"measurement": "The total FCFU number", "setting": "[2]; 0.1 mg/kg subcutaneous", "value": "178 ± 20"},
      {"measurement": "The number of FCFUs positive for alkaline phosphatase", "setting": "[2]; 1 mg/kg subcutaneous", "value": "117 ± 12"},
      {"measurement": "The total FCFU number", "setting": "[2]; 1 mg/kg subcutaneous", "value": "217 ± 22"}
    ]},
    {"compound": "C[C@]12CC[C@H](O)CC1=CC[C@@H]1[C@@H]2CC[C@]2(C)C(=O)CC[C@@H]12", "note": "[dihydroepiandrosterone (DHEA), dihydroepiandrosterone]", "values": [
      {"measurement": "effect on bone mass of ovariectomized animals", "setting": "[1]", "value": "extremely weak"},
      {"measurement": "effect on bone mass of ovariectomized animals", "setting": "[1]; listed as dihydroepiandrosterone", "value": "bone-salt improving effects on the ovariectomized rat"}
    ]},
    {"compound": "C[C@]12CC[C@H]3[C@@H](CCC4=CC(=O)CC[C@@]43C)[C@@H]1CC[C@@H]2O", "note": "[Testosterone, reference compound]", "values": [
      {"measurement": "The number of FCFUs positive for alkaline phosphatase", "setting": "[2]; 1 mg/kg subcutaneous", "value": "62 ± 5"},
      {"measurement": "The total FCFU number", "setting": "[2]; 1 mg/kg subcutaneous", "value": "149 ± 5"}
    ]},
    {"compound": "C[C@]12CCC(=O)C=C1CC[C@@H]1[C@@H]2[C@@H](O)C[C@]2(C)C(=O)CC[C@@H]12", "note": "[11β-OH-Δ^4 -A, 11β-hydroxy-4-androstene-3,17-dione]", "values": [
      {"measurement": "The number of FCFUs positive for alkaline phosphatase", "setting": "[3]", "value": "40 ± 11"},
      {"measurement": "The total FCFU number", "setting": "[3]", "value": "160 ± 35"},
      {"measurement": "The number of FCFUs positive for alkaline phosphatase", "setting": "[2]; 0.1 mg/kg subcutaneous", "value": "96 ± 16"},
      {"measurement": "The total FCFU number", "setting": "[2]; 0.1 mg/kg subcutaneous", "value": "180 ± 9"},
      {"measurement": "The number of FCFUs positive for alkaline phosphatase", "setting": "[2]; 1 mg/kg subcutaneous", "value": "128 ± 19"},
      {"measurement": "The total FCFU number", "setting": "[2]; 1 mg/kg subcutaneous", "value": "189 ± 26"},
      {"measurement": "Serum osteocalcin concentration", "setting": "osteocalcin; 0.1 mg/kg intraperitoneal, 7 successive days", "value": "72.6 ± 2.7", "unit": "ng/mL"},
      {"measurement": "Serum osteocalcin concentration", "setting": "osteocalcin; 5 mg/kg", "value": "75.5 ± 1.0", "unit": "ng/mL"},
      {"measurement": "concentration of osteocalcin (in words)", "setting": "osteocalcin; successive administration", "value": "increase the concentration of osteocalcin"},
      {"measurement": "osteogenesis depression observed after the ovariectomy", "setting": "[4]; 0.1 mg/kg thrice a week for a month", "value": "successfully normalized back the osteogenesis depression observed after the ovariectomy"},
      {"measurement": "FCFU formation", "setting": "[4]; 0.1 mg/kg, dorsi-subcutaneous, three times a week, 1 month, FIG. 2", "value": "a marked increase in the FCFU formation"},
      {"measurement": "bone-salt amount at places of the femur", "setting": "[5]; 1 mg/kg dorsi-subcutaneous", "value": "recovered to similar levels to those of the Sham-operated rat"},
      {"measurement": "bone-salt effects compared with dihydroepiandrosterone", "setting": "[5]; 1 mg/kg each, dorsi-subcutaneous", "value": "more potent than those of dihydroepiandrosterone"},
      {"measurement": "weight of the prostate", "setting": "[6]; 0.1-0.3 mg/rat/day (0.6-1.8 mg/kg/day) subcutaneous", "value": "a significant increase in the weight of the prostate"},
      {"measurement": "Androgenic action", "setting": "[6]; 0.1-0.3 mg/rat/day subcutaneous", "value": "very weak"},
      {"measurement": "weight of the musculus levator ani (anabolic action)", "setting": "musculus levator ani", "value": "An increase in the weight of the musculus levator ani"},
      {"measurement": "LD50", "setting": "Acute toxicity test", "value": "≥ 1000", "unit": "mg/kg"}
    ]}
  ]
}
